This note sets out measurements from article PMC11823630, “In vitro potentiation of tetracyclines in Pseudomonas aeruginosa by RW01, a new cyclic peptide” (Antimicrobial Agents and Chemotherapy, 2024).

Data set [1] has as its system PAO1 one-step mutants. In words: MIC, Sensititre custom plate, mutants summarised as a group. Format: cell-based, Pseudomonas aeruginosa. As to conditions: mutants generated by minocycline alone. Here is the method: Selection of resistant mutants was performed for minocycline with and without RW01 in three independent replicates for wild-type P. aeruginosa reference strain PAO1. Tubes containing Mueller-Hinton broth (MHB) were inoculated and incubated for 24 h at 37°C. Afterward, 1/100 dilution of each tube was incubated at 37°C in MHB to late-exponential growth phase, measured by spectrophotometry at OD600. […] A control plate without antibiotic was included as inoculum control. After overnight incubation, colony counting of each treatment was performed to analyze the generation of resistant population. The mutant prevention concentration (MPC) was defined as the lowest concentration of antibiotic yielding no growth of resistant mutants. Selected mutants were checked for susceptibility profiles by using a Sensititre custom plate (Thermo Fisher Scientific, Massachusetts, USA) for Gram-negative bacteria, following the manufacturer’s instructions.

Data set [2] concerns P. aeruginosa 125A. In words: MIC, CLSI broth microdilution in BD Phoenix AST Broth. The data set is classed as cell-based, Pseudomonas aeruginosa. As to conditions: strain 125A; antibiotic with RW01 at 100 mg/L. On the technique in general: In broth dilution the organism is exposed to a series of concentrations in liquid medium.
The test system of data set [3] is P. aeruginosa 125B. The data set is described as above. Format: cell-based, Pseudomonas aeruginosa. As to conditions: strain 125B; antibiotic with RW01 at 100 mg/L.
In data set [4] the test system is P. aeruginosa 41A. The data set is described as above. The data set is classed as cell-based, Pseudomonas aeruginosa. Conditions: strain 41A.
Data set [5] deals with P. aeruginosa 41B. The data set is described as above. Format: cell-based, Pseudomonas aeruginosa. As to conditions: strain 41B.
Data set [6] deals with P. aeruginosa PAO1. Described as above. Format: cell-based, Pseudomonas aeruginosa. As to conditions: strain PAO1; antibiotic with RW01 at 100 mg/L.
The subject of data set [7] is P. aeruginosa PAOUW. The data set is described as above. Format: cell-based, Pseudomonas aeruginosa. Conditions: strain PAOUW; antibiotic with RW01 at 100 mg/L.
The subject of data set [8] is P. aeruginosa PAOUW∆oprF. Described as above. The data set is classed as cell-based, Pseudomonas aeruginosa.
Data set [9] deals with P. aeruginosa PAOΔmexR. The data set is described as above. The data set is classed as cell-based, Pseudomonas aeruginosa.
Data set [10] concerns P. aeruginosa PAOΔmexZ. The description is as above. Format: cell-based, Pseudomonas aeruginosa. As to conditions: strain PAOΔmexZ.
The test system of data set [11] is P. aeruginosa PAOΔoprM. Described as above. Format: cell-based, Pseudomonas aeruginosa.
Data set [12] deals with PAO1 mutant MIN1_RW01_1, pmrB(Y98N). In words: MIC, E-test on MHA. The data set is classed as cell-based. Conditions: Pseudomonas aeruginosa, PAO1, read-out: MIC, E-test.
Data set [13] has as its system PAO1 mutant MIN1_RW01_2, mexR(G58E), pilB(G326D), hutC(Y181X). In words: MIC, E-test on MHA. The data set is classed as cell-based. As to conditions: Pseudomonas aeruginosa, PAO1, read-out: MIC, E-test.
The test system of data set [14] is PAO1 mutant MIN1_RW01_3, pmrB(V215L). In words: MIC, E-test on MHA. Conditions: Pseudomonas aeruginosa, PAO1, read-out: MIC, E-test. The data set is classed as cell-based.
Data set [15] deals with PAO1 mutant MIN1_RW01_4, pmrB(F124L). In words: MIC, E-test on MHA. The data set is classed as cell-based. As to conditions: Pseudomonas aeruginosa, PAO1, read-out: MIC, E-test.
Data set [16] relates to PAO1 mutant MIN2_RW01_1, pmrB(V215L). In words: MIC, E-test on MHA. Format: cell-based. As to conditions: Pseudomonas aeruginosa, PAO1, read-out: MIC, E-test.
Data set [17] has as its system PAO1 mutant MIN2_RW01_2, pmrB(M292T). In words: MIC, E-test on MHA. Conditions: Pseudomonas aeruginosa, PAO1, read-out: MIC, E-test. The data set is classed as cell-based.
The test system of data set [18] is PAO1 mutant MIN2_RW01_3, parS(V152A). In words: MIC, E-test on MHA. The data set is classed as cell-based. Conditions: Pseudomonas aeruginosa, PAO1, read-out: MIC, E-test.
Data set [19] relates to PAO1 mutant MIN2_RW01_4, pmrB(M292T). In words: MIC, E-test on MHA. As to conditions: Pseudomonas aeruginosa, PAO1, read-out: MIC, E-test. Format: cell-based.
In data set [20] the test system is PAO1 mutant MIN4_RW01_1, pmrB(R429H). In words: MIC, E-test on MHA. Format: cell-based. Conditions: Pseudomonas aeruginosa, PAO1, read-out: MIC, E-test.
The test system of data set [21] is PAO1 mutant MIN4_RW01_2, pmrB(F124S). In words: MIC, E-test on MHA. As to conditions: Pseudomonas aeruginosa, PAO1, read-out: MIC, E-test. The data set is classed as cell-based.
Data set [22] concerns PAO1 mutant MIN4_RW01_3, pmrB(M292T). In words: MIC, E-test on MHA. Format: cell-based. Conditions: Pseudomonas aeruginosa, PAO1, read-out: MIC, E-test.
The test system of data set [23] is PAO1 mutant MIN4_RW01_4, pmrB(Y98N). In words: MIC, E-test on MHA. Format: cell-based. Conditions: Pseudomonas aeruginosa, PAO1, read-out: MIC, E-test.
The test system of data set [24] is PAO1 mutant MIN8_1, nalD(R3C), pilM(Q62X). In words: MIC, E-test on MHA. Format: cell-based. Conditions: Pseudomonas aeruginosa, PAO1, read-out: MIC, E-test.
In data set [25] the test system is PAO1 mutant MIN8_2, pilZ(nt18InsT). In words: MIC, E-test on MHA. The data set is classed as cell-based. As to conditions: Pseudomonas aeruginosa, PAO1, read-out: MIC, E-test.
Data set [26] has as its system PAO1 mutant MIN8_3, pilZ(nt18InsT). In words: MIC, E-test on MHA. The data set is classed as cell-based. As to conditions: Pseudomonas aeruginosa, PAO1, read-out: MIC, E-test.
The test system of data set [27] is PAO1 mutant MIN8_4, pilZ(nt18InsT). In words: MIC, E-test on MHA. The data set is classed as cell-based. As to conditions: Pseudomonas aeruginosa, PAO1, read-out: MIC, E-test.
The test system of data set [28] is PAO1 mutant MIN16_1, nalD(T43P). In words: MIC, E-test on MHA. Format: cell-based. As to conditions: Pseudomonas aeruginosa, PAO1, read-out: MIC, E-test.
The subject of data set [29] is PAO1 mutant MIN16_2, nalC(aa9∆4), pilQ(nt46∆1). In words: MIC, E-test on MHA. The data set is classed as cell-based. As to conditions: Pseudomonas aeruginosa, PAO1, read-out: MIC, E-test.
Data set [30] deals with PAO1 mutant MIN16_3, nfxB(nt79∆14), pilB(N349K). In words: MIC, E-test on MHA. The data set is classed as cell-based. Conditions: Pseudomonas aeruginosa, PAO1, read-out: MIC, E-test.
The test system of data set [31] is PAO1 mutant MIN16_4, nalC(T50P), pilM(Q62X). In words: MIC, E-test on MHA. The data set is classed as cell-based. Conditions: Pseudomonas aeruginosa, PAO1, read-out: MIC, E-test.
Data set [32] deals with PAO1 mutant MIN32_1, mexR(R63H), pilB(N349K), PA0646(V316G). In words: MIC, E-test on MHA. The data set is classed as cell-based. Conditions: Pseudomonas aeruginosa, PAO1, read-out: MIC, E-test.
Data set [33] has as its system C57BL/6J females. In words: In vivo acute toxicity. Further details: species or system mice. Conditions: single ip dose of 0.2 mL at 250 or 500 mg/L; n = 6 per group; observed 7 days. The method, then:
(§1) To study the acute toxicity of RW01, two groups of n = 6 C57BL/6J females (≈20 g) were treated intraperitoneally (ip) with a single dose of 0.2 mL of 250 and 500 mg/L concentrations of RW01, respectively. After administration and for 7 days, the following indicative signs of pain were assessed: reduced water (dehydration), food intake, isolation, self-mutilation, tremors/spasms, dyspnea, physical activity (increased/reduced), chromodacryorrhea, muscle stiffness, piloerection, teeth grinding, and weight loss. For cumulative toxicity determination, a group of n = 6, 7-week-old healthy C57BL/6J females was treated ip, with a 0.2 mL single dose per day for 3 days at a concentration equivalent to 500 mg/L. After administration and for 7 days, the same indicative signs of pain/toxicity detailed in the acute toxicity studies were evaluated.

Data set [34] relates to C57BL/6J females. In words: In vivo cumulative toxicity. Further details: species or system mice. As to conditions: ip 0.2 mL once a day for 3 days at 500 mg/L; n = 6; observed 7 days. Here is the method:
as §1

[35] abbreviates: Pseudomonas aeruginosa, agent alone, 37°C, 18–22 h, three biological replicates.
Where [36] appears, read: antibiotic with RW01 at 100 mg/L.
Setting [37] is: strain PAOUWΔoprF (printed PAOΔoprF), antibiotic with RW01 at 100 mg/L.
Setting [38] is: strain PAOΔmexR, antibiotic with RW01 at 100 mg/L.
[39] abbreviates: strain PAOΔoprM, antibiotic with RW01 at 100 mg/L.

Values after ≈ are worked out from the molar mass of the structure shown. Where a SMILES comes first, the peptide text is derived from it.

colistin: the “colistin MIC vs wild type” value in data set [1] is recorded as “remained unchanged”.

Turning to `CN(C)[C@@H]1C(O)=C(C(N)=O)C(=O)[C@@]2(O)C(O)=C3C(=O)c4c(O)cccc4[C@@](C)(O)[C@H]3C[C@@H]12` [Tetracycline, tetracycline], the FICI-determined effect entry in data set [2] is on record as “Synergy (synergistic effect if FICI is ≤0.5)”; in data set [3], “Synergy (synergistic effect if FICI is ≤0.5)”; in data set [4] (setting [36]), “Additivity (additive effect if 0.5 < FICI ≤ 1.0)”; in data set [5] (setting [36]) it was “Additivity (additive effect if 0.5 < FICI ≤ 1.0)”; in data set [6], “Synergy (synergistic effect if FICI is ≤0.5)”; in [7], “Synergy (synergistic effect if FICI is ≤0.5)”. In addition, the FICI-determined effect result in [8] (setting [37]) is “Synergy (synergistic effect if FICI is ≤0.5)”; in [9] (setting [38]) it was “Synergy (synergistic effect if FICI is ≤0.5)”; in data set [10] (setting [36]), “Synergy (synergistic effect if FICI is ≤0.5)”; in [11] (setting [39]), “Additivity (additive effect if 0.5 < FICI ≤ 1.0)”. Besides, the FICI in data set [3] is reported as 0.445; in data set [6], 0.445; in [8] (setting [37]), 0.223; in [9] (setting [38]), 0.348; in [10] (setting [36]), 0.223; in data set [11] (setting [39]) it was 0.598. Besides, the MIC (as a rule, the lowest concentration that inhibits growth of the organism) was found to be 16 µg/mL in data set [4] (setting [35]); 16 µg/mL in data set [5] (setting [35]); 16 µg/mL in data set [8] (strain PAOUWΔoprF, agent alone, 37°C, 18–22 h, three biological replicates); 16 µg/mL in data set [9] (Pseudomonas aeruginosa); 16 µg/mL in [10] (setting [35]); 1 µg/mL in data set [11] (Pseudomonas aeruginosa). Further, the minimum inhibitory concentration (MIC) was found to be 192 µg/mL (≈ 432 µM) in [12]; 256 µg/mL (≈ 576 µM) in data set [13]; 256 µg/mL (≈ 576 µM) in data set [14]; 64 µg/mL (≈ 144 µM) in data set [15]; 128 µg/mL (≈ 288 µM) in [16]; 192 µg/mL (≈ 432 µM) in data set [17]. The minimal inhibitory concentration (MIC) was 256 µg/mL (≈ 576 µM) in data set [18]; 96 µg/mL (≈ 216 µM) in data set [19]; 256 µg/mL (≈ 576 µM) in data set [20]; 64 µg/mL (≈ 144 µM) in data set [21]; 256 µg/mL (≈ 576 µM) in data set [22]; 96 µg/mL (≈ 216 µM) in [23]. Besides, the minimal inhibitory concentration (MIC) in [24] amounted to 256 µg/mL (≈ 576 µM); in data set [25], 256 µg/mL (≈ 576 µM); in data set [26], 64 µg/mL (≈ 144 µM); in data set [27] it was 64 µg/mL (≈ 144 µM); in [28] it was 256 µg/mL (≈ 576 µM); in data set [29] it was 96 µg/mL (≈ 216 µM). The minimal inhibitory concentration (MIC) in data set [30] is 128 µg/mL (≈ 288 µM); in data set [31], 64 µg/mL (≈ 144 µM); in [32] it was 256 µg/mL (≈ 576 µM). Also, the “Antibiotic MIC + RW01 100 mg/L” value amounted to 4 µg/mL in data set [9] (strain PAOΔmexR, MIC of the antibiotic with fixed 100 mg/L RW01) and 0.5 µg/mL in data set [11] (strain PAOΔoprM, MIC of the antibiotic with fixed 100 mg/L RW01).

Take `N=C(N)NCCC[C@@H]1NC(=O)[C@H]2C[C@H](N)CN2C(=O)[C@H](Cc2c[nH]c3ccccc23)NC(=O)[C@H](CCCNC(=N)N)NC(=O)[C@H]2CCCN2C(=O)[C@H](Cc2c[nH]c3ccccc23)NC1=O` [RW01] (HELM PEPTIDE1{R.W.[dP].R.W.[N[C@H]1C[C@H](C(=O)[*:2])N([*:1])C1]}$PEPTIDE1,PEPTIDE1,1:R1-6:R2$$$V2.0): in data set [33], the “signs of pain/toxicity, acute toxicity” value is “None of the doses tested of RW01 showed any of the 11 symptoms indicative of pain/toxicity”. Also, the “signs of pain/toxicity, cumulative toxicity” value in data set [34] is “None of the doses tested of RW01 showed any of the 11 symptoms indicative of pain/toxicity”.
